From US6579718B1, “Carbazolylvinyl dye protein stains” (Molecular Probes, Inc., priority 2000, dated 2003)

Test system: amino acid homo- and hetero-polymers
Test: Dye staining of amino acid homo- and hetero-polymers copolymerized into polyacrylamide gel discs
Source text: The specificity of protein detection of the present method can be compared to that of silver, CBB, SYPRO Orange dye and SYPRO Red dye staining for a variety of synthetic poly(amino acids) copolymerized into a polyacrylamide gel matrix. To do this, homopolymers of L-arginine, asparagine, histidine, lysine, aspartate, glutamate, alanine, glycine, isoleucine, leucine, methionine, serine, threonine, tryptophan, tyrosine and proline are copolymerized into 15% T, 2.6% C polyacrylamide gels at a concentration of […]. Except when indicated, 0.1% sodium dodecyl sulfate is included in the polyacrylamide solution as well. The amino acid heteropolymers, poly(glutamate, alanine, tyrosine), poly(glutamate, tyrosine), poly(lysine, tyrosine), poly(glutamate, lysine, tyrosine), and poly(arginine, tyrosine) are copolymerized into polyacrylamide gels in an identical manner as the homopolymers. Blank gels containing no polymer are prepared for reference. The co-polymerized gels are cut into discs using the large end of a 1000 microliter pipet tip (Sorenson Bioscience, Inc., West Salt. Lake City, Utah) and stained in Falcon 48 well flat bottom tissue culture plates (Becton-Dickinson, Franklin Lakes, N.J.) on an orbital shaker operating at 50 RPM. Gel discs are quantified on a Roche Lumi-Imager system (Indianapolis, Ind.) and classified into three groups based upon staining intensity (strong, moderate, or weak staining).

[1] = gel discs with 0.1% SDS, no asterisk = moderate

CCn1c2ccccc2c2cc(/C=C/c3cc[n+](CCCCS(=O)(=O)[O-])c4ccccc34)ccc21 [Compound 9]
Staining intensity, Arg homopolymer [1]: Arg* | Staining intensity, Arg:Tyr heteropolymer [1]: Arg:Tyr* | Staining intensity, Glu:Ala:Tyr heteropolymer [1]: Glu:Ala:Tyr* | Staining intensity, Glu:Lys:Tyr heteropolymer [1]: Glu:Lys:Tyr* | Staining intensity, Glu:Tyr heteropolymer [1]: Glu:Tyr* | Staining intensity, Gly homopolymer [1]: Gly | Staining intensity, His homopolymer [1]: His* | Staining intensity, Ile homopolymer [1]: Ile | Staining intensity, Lys homopolymer [1]: Lys* | Staining intensity, Lys:Tyr heteropolymer [1]: Lys:Tyr* | Staining intensity, Tyr homopolymer [1]: Tyr* | Change of amino acid polymer staining in phosphate-buffered saline (phosphate-buffered saline versus 7% acetic acid): not substantially reduced
